The values below come from ChEMBL document CHEMBL2146447, “Synthesis and antimicrobial activity of amido linked pyrrolyl and pyrazolyl-oxazoles, thiazoles and imidazoles” (2011).

Calls of active or inactive are those of the source. No cut-off for these calls is given here.

Assay type in all cases: functional
The subject of experiment [1] is Staphylococcus aureus. Put plainly: Antibacterial activity against Staphylococcus aureus assessed at 50 ug after 24 hrs by agar well diffusion method. Conditions: for zone of inhibition at 50 µg/disc: read-out: DIZ. (In general: Agar diffusion results depend on both activity and mobility in agar.)
The subject of experiment [2] is Staphylococcus aureus. Put plainly: Antibacterial activity against Staphylococcus aureus at 100 ug after 24 hrs by agar well diffusion method. As to conditions: for zone of inhibition at 100 µg/disc: read-out: DIZ.
Experiment [3] has as its system Bacillus subtilis. In words: Antibacterial activity against Bacillus subtilis at 50 ug after 24 hrs by agar well diffusion method. As to conditions: for zone of inhibition at 50 µg/disc: read-out: DIZ.
In experiment [4] the test system is Bacillus subtilis. In words: Antibacterial activity against Bacillus subtilis at 100 ug after 24 hrs by agar well diffusion method. As to conditions: for zone of inhibition at 100 µg/disc: read-out: DIZ.
Experiment [5] has as its system Pseudomonas aeruginosa. In words: Antibacterial activity against Pseudomonas aeruginosa at 50 ug after 24 hrs by agar well diffusion method. As to conditions: for zone of inhibition at 50 µg/disc: read-out: DIZ.
Experiment [6] concerns Pseudomonas aeruginosa. In words: Antibacterial activity against Pseudomonas aeruginosa at 100 ug after 24 hrs by agar well diffusion method. Conditions: for zone of inhibition at 100 µg/disc: read-out: DIZ.
The subject of experiment [7] is Klebsiella pneumoniae. In words: Antibacterial activity against Klebsiella pneumoniae at 50 ug after 24 hrs by agar well diffusion method. As to conditions: for zone of inhibition at 50 µg/disc: read-out: DIZ.
Experiment [8] relates to Klebsiella pneumoniae. In words: Antibacterial activity against Klebsiella pneumoniae at 100 ug after 24 hrs by agar well diffusion method. Conditions: for zone of inhibition at 100 µg/disc: read-out: DIZ.
In experiment [9] the test system is Aspergillus niger. In words: Antifungal activity against Aspergillus niger at 50 ug after 48 hrs by agar well diffusion method. As to conditions: for zone of inhibition at 50 µg/disc: read-out: DIZ.
The test system of experiment [10] is Aspergillus niger. Put plainly: Antifungal activity against Aspergillus niger at 100 ug after 48 hrs by agar well diffusion method. Conditions: for zone of inhibition at 100 µg/disc: read-out: DIZ.
The subject of experiment [11] is Penicillium chrysogenum. In words: Antifungal activity against Penicillium chrysogenum at 50 ug after 48 hrs by agar well diffusion method. As to conditions: for zone of inhibition at 50 µg/disc: read-out: DIZ.
Experiment [12] deals with Penicillium chrysogenum. In words: Antifungal activity against Penicillium chrysogenum at 100 ug after 48 hrs by agar well diffusion method. Conditions: for zone of inhibition at 100 µg/disc: read-out: DIZ.
In experiment [13] the test system is Staphylococcus aureus. Put plainly: Antibacterial activity against Staphylococcus aureus at 35 degC after 24 hrs by broth dilution method.
Experiment [14] relates to Staphylococcus aureus. Put plainly: Antibacterial activity against Staphylococcus aureus at 35 degC after 24 hrs by NCCLS M7-A3 method.
Experiment [15] deals with Bacillus subtilis. In words: Bactericidal activity against Bacillus subtilis after 24 hrs by broth dilution method.
For experiment [16], the system named is Bacillus subtilis. In words: Bactericidal activity against Bacillus subtilis after 24 hrs by NCCLS M7-A3 method.
For experiment [17], the system named is Pseudomonas aeruginosa. In words: Bactericidal activity against Pseudomonas aeruginosa after 24 hrs by broth dilution method.
Experiment [18] has as its system Pseudomonas aeruginosa. Put plainly: Bactericidal activity against Pseudomonas aeruginosa after 24 hrs by NCCLS M7-A3 method.
Experiment [19] relates to Klebsiella pneumoniae. In words: Bactericidal activity against Klebsiella pneumoniae after 24 hrs by broth dilution method. Background: Dilution methods test growth across graded concentrations, often in twofold steps.
Experiment [20] has as its system Klebsiella pneumoniae. Put plainly: Bactericidal activity against Klebsiella pneumoniae after 24 hrs by NCCLS M7-A3 method.
Experiment [21] has as its system Aspergillus niger. In words: Fungicidal activity against Aspergillus niger after 48 hrs by broth dilution method.
Experiment [22] concerns Aspergillus niger. In words: Fungicidal activity against Aspergillus niger after 48 hrs by NCCLS M27-P broth dilution method.
For experiment [23], the system named is Penicillium chrysogenum. Put plainly: Fungicidal activity against Penicillium chrysogenum after 48 hrs by broth dilution method.
The subject of experiment [24] is Penicillium chrysogenum. In words: Fungicidal activity against Penicillium chrysogenum after 48 hrs by NCCLS M27-P broth dilution method.

With `O=C(Nc1nc(-c2ccc(Cl)cc2)c[nH]1)c1n[nH]cc1-c1ccccc1`, the zone of inhibition at 50 µg/disc stood at 31 mm in [1]; 33 mm in experiment [3]; 30 mm in experiment [5]; 37 mm in experiment [7]; 30 mm in [9]; 33 mm in experiment [11]. In addition, the zone of inhibition at 100 µg/disc in experiment [2] turned out to be 34 mm; in [4] it was 35 mm; in experiment [6], 32 mm; in experiment [8] it was 39 mm; in [10] it was 34 mm; in [12], 37 mm. Also, the MIC in [13] amounted to 50 µg; in [15], 12.5 µg; in experiment [17] it was 25 µg; in [19], 50 µg; in experiment [21] it was 12.5 µg; in experiment [23], 25 µg. For the same compound, the MBC in experiment [14] was determined as 200 µg; in [16], 50 µg; in [18], 100 µg; in experiment [20], 200 µg. The figures for the MFC in experiment [22] and in experiment [24] were 50 µg and 100 µg, respectively.

`O=C(/C=C/c1ccccc1)Nc1nc(-c2ccc(Cl)cc2)c[nH]1`: the zone of inhibition at 50 µg/disc in [1] turned out to be 32 mm; in experiment [3] it was 36 mm; in experiment [5] it was 31 mm; in experiment [7], 39 mm; in experiment [9], 32 mm; in experiment [11], 35 mm. For the same compound, the zone of inhibition at 100 µg/disc came out at 35 mm in [2]; 38 mm in experiment [4]; 33 mm in [6]; 40 mm in [8]; 34 mm in experiment [10]; 38 mm in experiment [12]. Further, the MIC in experiment [13] came to 12.5 µg; in experiment [15], 12.5 µg; in experiment [17] it was 12.5 µg; in experiment [19], 25 µg; in experiment [21], 12.5 µg; in experiment [23] it was 25 µg. Besides, the MBC in experiment [14] came to 50 µg; in experiment [16], 25 µg; in experiment [18], 50 µg; in experiment [20], 100 µg. Besides, the MFC is 100 µg in [22] and 50 µg in experiment [24].

On to `O=C(N[C@H](CO)[C@H](O)c1ccc([N+](=O)[O-])cc1)C(Cl)Cl` [CHLORAMPHENICOL], for which the zone of inhibition at 50 µg/disc in experiment [1] was determined as 33 mm; in experiment [3], 34 mm; in experiment [5], 27 mm; in experiment [7], 40 mm. The zone of inhibition at 100 µg/disc amounted to 35 mm in experiment [2], 38 mm in experiment [4], 30 mm in experiment [6] and 42 mm in [8]. Further, the MIC is 6.25 µg in experiment [13], 6.25 µg in experiment [15], 6.25 µg in experiment [17] and 12.5 µg in experiment [19].

Regarding `CC(=O)N1CCN(c2ccc(OCC3COC(Cn4ccnc4)(c4ccc(Cl)cc4Cl)O3)cc2)CC1` (stereo not given) [KETOCONAZOLE], the zone of inhibition at 50 µg/disc in experiment [9] turned out to be 33 mm; in [11], 36 mm. Moreover, the zone of inhibition at 100 µg/disc in experiment [10] is 36 mm; in experiment [12], 38 mm. The MIC in experiment [21] was 6.25 µg; in experiment [23], 12.5 µg.

As for `O=C(Nc1nc(-c2ccc(Cl)cc2)cs1)c1c[nH]cc1-c1ccccc1`, the zone of inhibition at 50 µg/disc in experiment [1] amounted to 26 mm; in [3] it was 27 mm; in experiment [5], 23 mm; in experiment [7] it was 29 mm; in experiment [9], 29 mm; in experiment [11], 30 mm. The zone of inhibition at 100 µg/disc was 27 mm in experiment [2]; 29 mm in experiment [4]; 25 mm in experiment [6]; 30 mm in [8]; 31 mm in [10]; 33 mm in experiment [12].

For the compound `Cc1ccc(-c2coc(NC(=O)/C=C/c3ccccc3)n2)cc1`, the “diameter of the inhibition zone (DIZ)” value in experiment [1], in experiment [2], in experiment [3], in [4], in experiment [5] and in experiment [6] was “inactive” throughout. Moreover, the “diameter of the inhibition zone (DIZ)” value in experiment [7], in experiment [8], in experiment [9], in experiment [10], in [11] and in experiment [12] was “inactive” in each case.

With `Cc1ccc(-c2csc(NC(=O)c3c[nH]cc3-c3ccccc3)n2)cc1`, the zone of inhibition at 50 µg/disc in experiment [1] was 16 mm; in experiment [3], 19 mm; in experiment [5], 13 mm; in experiment [7] it was 21 mm; in [9], 18 mm; in experiment [11], 18 mm. Further, the zone of inhibition at 100 µg/disc in [2] was 18 mm; in experiment [4], 21 mm; in [6] it was 15 mm; in [8], 23 mm; in [10], 19 mm; in experiment [12] it was 21 mm.

As to `Cc1ccc(-c2coc(NC(=O)c3n[nH]cc3-c3ccccc3)n2)cc1`, the “diameter of the inhibition zone (DIZ)” value in experiment [1], in experiment [2], in experiment [3], in [4], in experiment [5] and in experiment [6] was “inactive” in each case. For the same compound, the “diameter of the inhibition zone (DIZ)” value in experiment [7], in experiment [8], in experiment [9], in experiment [10], in experiment [11] and in experiment [12] was “inactive” each time.

`O=C(Nc1nc(-c2ccc(Cl)cc2)co1)c1n[nH]cc1-c1ccccc1`: the zone of inhibition at 50 µg/disc in experiment [1] is 20 mm; in experiment [3], 21 mm; in experiment [5], 19 mm; in experiment [7], 23 mm; in experiment [9], 24 mm; in experiment [11], 26 mm. Also, the zone of inhibition at 100 µg/disc in experiment [2] is 23 mm; in experiment [4], 22 mm; in [6] it was 21 mm; in experiment [8] it was 24 mm; in [10], 27 mm; in [12], 29 mm.

Consider `O=C(Nc1nc(-c2ccc(Cl)cc2)c[nH]1)c1c[nH]cc1-c1ccccc1`, for which the zone of inhibition at 50 µg/disc in experiment [1] was 30 mm; in experiment [3], 29 mm; in experiment [5], 25 mm; in experiment [7], 34 mm; in experiment [9], 32 mm; in experiment [11] it was 33 mm. The zone of inhibition at 100 µg/disc came to 33 mm in experiment [2]; 33 mm in experiment [4]; 28 mm in experiment [6]; 36 mm in [8]; 34 mm in [10]; 36 mm in [12]. In addition, the MIC amounted to 50 µg in experiment [13]; 25 µg in experiment [15]; 50 µg in experiment [17]; 100 µg in experiment [19]; 25 µg in [21]; 50 µg in experiment [23]. Besides, the MBC in experiment [14] was 200 µg; in experiment [16], 100 µg; in experiment [18], greater than 200 µg; in experiment [20] it was greater than 200 µg. Also, the MFC in experiment [22] was 100 µg; in [24] it was greater than 200 µg.
